Values after ≈ are worked out from the molar mass of the structure shown. Where two headings read alike, the source gives them in different places.
Assays:
Assay in all cases: MIC by agar dilution method in Mueller Hinton agar
Type in all cases: cell-based
[1] = tested on: Acinetobacter sp. 51-156; conditions: SP.51156
Method: (§1) In vitro activity was determined by minimum inhibitory concentration in a microorganism spectrum by the agar dilution method in Mueller Hinton agar.

[2] = tested on: B. fragilis ATCC25285; conditions: Bacteroides fragilis, ATCC25285
Method: as §1

[3] = tested on: C. difficile ZH1; conditions: Clostridioides difficile, ZH1
Method: as §1

[4] = tested on: C. freundii 43; conditions: Citrobacter freundii, 43
Method: as §1

[5] = tested on: E. cloacae 908R; conditions: Enterobacter cloacae
Method: as §1

[6] = tested on: E. cloacae 908SSi; conditions: Enterobacter cloacae, 908SSI
Method: as §1

[7] = tested on: E. faecalis 6; conditions: Enterococcus faecalis, 6
Method: as §1

[8] = tested on: H. influenzae 1; conditions: Haemophilus influenzae
Method: as §1

[9] = tested on: L. monocytogenes BK23; conditions: Listeria monocytogenes, BK23
Method: as §1

[10] = tested on: M. catarrhalis RA21; conditions: Moraxella catarrhalis
Method: as §1

[11] = tested on: P. aeruginosa 27853; conditions: Pseudomonas aeruginosa
Method: as §1

[12] = tested on: P. asaccharolyticus 29743; conditions: Peptoniphilus asaccharolyticus
Method: as §1

[13] = tested on: P. vulgaris 1028; conditions: Proteus vulgaris
Method: as §1

[14] = tested on: S. agalactiae QK44; conditions: Streptococcus agalactiae
Method: as §1

[15] = tested on: S. aureus 6538; conditions: Staphylococcus aureus, 6538
Method: as §1

[16] = tested on: S. aureus 734 MRSA; conditions: Staphylococcus aureus, MRSA
Method: as §1

[17] = tested on: S. marscescens 69438
Method: as §1

[18] = tested on: S. pneumoniae Q19; conditions: Streptococcus pneumoniae
Method: as §1

[19] = tested on: S. viridans group 016; conditions: Streptococcus viridans, GROUP016
Method: as §1

[20] = tested on: X. maltophilia 1AC739; conditions: Stenotrophomonas maltophilia
Method: as §1

[21] = tested on: C. freundii 902; conditions: Citrobacter freundii, 902
Method: as §1

[22] = tested on: E. coli 25922; conditions: Escherichia coli, 25922
Method: as §1

[23] = tested on: K. pneumoniae 418; conditions: Klebsiella pneumoniae, 418
Method: as §1

[24] = tested on: M. morganii 6H-137; conditions: Morganella morganii, 6H137
Method: as §1

[25] = tested on: P. mirabilis 2117; conditions: Proteus mirabilis, 2117
Method: as §1

Compound | MIC [4] [µg/mL] | MIC [6] [µg/mL] | MIC [7] [µg/mL] | MIC [8] [µg/mL] | MIC [9] [µg/mL] | MIC [14] [µg/mL] | MIC [15] [µg/mL] | MIC [16] [µg/mL] | MIC [17] [µg/mL] | MIC [18] [µg/mL] | MIC [19] [µg/mL] | other results
Nc1nc(/C(=N/O)C(=O)N[C@@H]2C(=O)N3C(C(=O)O)=C(/C=C4\CCN(c5ccc(O)cc5)C4=O)CS[C@H]23)cs1 [A, (6R,7R)-7-[(Z)-2-(2-Amino-thiazol-4-yl)-2-hydroxyimino-acetylamino]-3-[(E)-1-(4-hydroxy-phenyl)-2-oxo-pyrrolidin-3-ylidenemethyl]-8-oxo-5-thia-1-azabicyclo[4.2.0]oct-2-ene-2-carboxylic acid] | 4 (≈ 7.19 µM) | 0.25 (≈ 0.449 µM) | 0.5 (≈ 0.898 µM) | 0.25 (≈ 0.449 µM) | 4 (≈ 7.19 µM) | 0.25 (≈ 0.449 µM) | 0.25 (≈ 0.449 µM) | 4 (≈ 7.19 µM) | 0.5 (≈ 0.898 µM) | 0.12 (≈ 0.216 µM) | 0.25 (≈ 0.449 µM) | MIC ([1]; Acinetobacter sp. 51-156, read-out: MIC): 16 µg/mL (≈ 28.7 µM); MIC [2]: 4 µg/mL (≈ 7.19 µM); MIC [3]: 8 µg/mL (≈ 14.4 µM); MIC ([5]; E. cloacae 908R, read-out: MIC): 16 µg/mL (≈ 28.7 µM); MIC ([10]; M. catarrhalis RA21, read-out: MIC): 16 µg/mL (≈ 28.7 µM); MIC [11]; 27853: 4 µg/mL (≈ 7.19 µM); MIC [12]: 0.25 µg/mL (≈ 0.449 µM); MIC ([13]; P. vulgaris 1028, read-out: MIC): 32 µg/mL (≈ 57.5 µM); MIC ([20]; X. maltophilia 1AC739, read-out: MIC): > 32 µg/mL
C=CC1=C(C(=O)O)N2C(=O)[C@@H](NC(=O)/C(=N\O)c3csc(N)n3)[C@H]2SC1 [I, [6R[6a,7b(Z)]7-(2-Amino-4-thiazolyl)[(hydroxyimino)]acetyl]amino3-ethenyl 8-oxo-5-thia-1-azabicyclo-[4.2.0]oct2-ene-2-carboxylic acid, reference compound] | > 32 | 32 (≈ 80.9 µM) | 8 (≈ 20.2 µM) | 0.5 (≈ 1.26 µM) | 16 (≈ 40.5 µM) | 0.25 (≈ 0.632 µM) | 0.5 (≈ 1.26 µM) | > 32 | 16 (≈ 40.5 µM) | 0.25 (≈ 0.632 µM) | 2 (≈ 5.06 µM) | MIC ([1]; Acinetobacter): > 32 µg/mL; MIC [21]: 16 µg/mL (≈ 40.5 µM); MIC ([5]; 908R): > 32 µg/mL; MIC [22]: 0.25 µg/mL (≈ 0.632 µM); MIC [23]: 0.12 µg/mL (≈ 0.303 µM); MIC ([10]; RA21): 1 µg/mL (≈ 2.53 µM); MIC [24]: 8 µg/mL (≈ 20.2 µM); MIC ([11]; P. aeruginosa 27853, read-out: MIC): > 32 µg/mL; MIC [25]: 0.12 µg/mL (≈ 0.303 µM); MIC [13]; 1028: 1 µg/mL (≈ 2.53 µM); MIC ([20]; 1AC739): > 32 µg/mL

— patent publication US5804577A, “Cephalosporin derivatives” (Hoffmann-La Roche Inc., priority 1995, dated 1998)
